Here are results for one compound from article PMC9698716, “From Serendipity to Rational Identification of the 5,6,7,8-Tetrahydrobenzo[4,5]thieno[2,3-d]pyrimidin-4(3H)-one Core as a New Chemotype of AKT1 Inhibitors for Acute Myeloid Leukemia” (Pharmaceutics, 2022).

Data set [1] can be described thus: Solubility screen assay to determine chemical aggregation (nephelometry). The settings on record: AKT1 assay buffer pH 7.5, 37 °C, 2 h, NEPHELOstar Plus. The class given is physicochemical. How it is done:
The stock solutions (10–2 M) of the compound T126 were diluted to a decreased molarity, from 100 µM to 0.0001 µM, in 384-well transparent plates (Greiner 781801) with 1% DMSO: 99% buffer Hepes 100 mM, DMSO 4%, Brij 0.003%, Tween 20 0.004%, MgCl2 10 mM, at a pH = 7.5. Incubation occurred at 37 °C and the results were read after 2 h in a NEPHELOstar Plus (BMG LABTECH, Ortenberg, Germany). The results were adjusted to a segmented regression to obtain the maximum concentration in which the compounds were soluble.

Data set [2] concerns phospho-mTOR, at site S2448. As to the kind of experiment: Western blot of AKT signaling pathway in AML cell lines. The class given is cell-based, human. As to conditions: increasing concentrations (0.5 and 5 µM), 24 and 48 h, OCI-AML3, IMS-M2, OCI-AML2. How it is done: (§1) Immunoblotting was conducted as described previously. Briefly, fresh cell pellets (0.2–0.5 × 10^6/test for AML cell lines) were dissolved directly in 30–60 μL of Laemmli sample buffer 1× (1.5 M Tris-HCl pH 6.8, glycerol, β-mercaptoethanol, SDS, bromophenol blue) and boiled at 95 °C for 5 min. The proteins were separated by SDS-polyacrylamide gel electrophoresis (SDS-PAGE) on Precast 4–15% gradient gels (Biorad, Hercules, CA, USA) transferred onto nitrocellulose membranes (GE Healthcare, Piscataway, NJ, USA) and probed with specific primary antibodies followed by horseradish peroxidase-conjugated secondary antibodies (GE Healthcare Lifesciences). The polypeptides were visualized using enhanced chemiluminescence (Luminata Crescendo, Merck Millipore, Burlington, MA, USA) according to the manufacturer’s instructions. The bands were visualized using the Biorad Chemidoc and the images were processed using the image lab software (Biorad) and Adobe Photoshop (Ps CC 2019). β-actin expression levels were used as a control for protein loading, as indicated.
(§2) The primary antibodies used for western blot analyses are the following: mouse monoclonal anti-human β-actin (Clone AC-15; dilution 1:5000) from Sigma Aldrich (St. Louis, MO, USA); rabbit monoclonal anti-human Cleaved poly (ADP-ribose) polymerase (c-PARP) (Clone Asp 214; dilution 1:1000); rabbit monoclonal phospho-Akt (Ser473) (clone D9E, dilution 1.500); rabbit polyclonal phospho-mTOR (Ser2448) (dilution 1:500); rabbit polyclonal phospho-4E-BP1 (Ser65) (dilution 1:500); rabbit monoclonal Akt1 (clone D9R8K, dilution 1:500); rabbit polyclonal 4E-BP1 (dilution 1:500); and rabbit polyclonal mTOR (dilution 1:500), all from Cell Signaling (Cell Signaling Technology, Inc., Danvers, MA, USA).

Data set [3] has as its system phospho-AKT, at site S473. The description is as above. The class given is cell-based, human. How it is done:
as §1, §2

The subject of data set [4] is E4-BP1 phosphorylation at site S65. The description is as above. The class given is cell-based, human. As to conditions: increasing concentrations (0.5 and 5 µM), 24 and 48 h, OCI-AML3, IMS-M2, OCI-AML2. How it is done:
as §1, §2

Data set [5] concerns OCI-AML3. As to the kind of experiment: Cell growth, viable cell count by trypan blue exclusion. The class given is cell-based, human. As to conditions: OCI-AML3, 5 µM, at 48 and 72 h.
Data set [6] has as its system OCI-AML3. Nature of the data set: Apoptosis by flow cytometry (Annexin V/7AAD). The class given is cell-based, human. The settings on record: OCI-AML3, 5 µM, 48 h. As for the experimental part:
(§3) The cell apoptosis was assessed using Annexin V APC- or FITC-conjugated antibodies and counterstained with Propidium Iodide (PI) or 7AAD for the detection of necrotic cells (Becton Dickinson, Franklin Lakes, NJ, USA), according to the manufacturer’s protocol. The data acquisition and analysis were done with a FACS Canto II flow cytometer and data were acquired and analyzed using Diva software (Becton Dickinson, Franklin Lakes, NJ, USA).

For a further data set, the system named is OCI-AML2. As to the kind of experiment: Apoptosis by flow cytometry (Annexin V/7AAD). The class given is cell-based, human. The settings on record: OCI-AML2, 5 µM, 48 h. How it is done: as §3
The next data set deals with IMS-M2. Nature of the data set: Apoptosis by flow cytometry (Annexin V/7AAD). The class given is cell-based, human. As to conditions: IMS-M2, 5 µM, 48 h. How it is done:
as §3

Another data set addresses T1, AKT1 (Homo sapiens, UniProt P31749).
T1 construct: purchased Kinase Logistics, Meyn, Germany #Aps 01-101
As to the kind of experiment: AKT1 enzymatic inhibition assay. The class given is biochemical. As for the experimental part: The studied compounds, including the standard inhibitor Staurosporine (Thermo-Fisher , Madrid, Spain, Invitrogen BP2541), were incubated with 3 nM AKT1 (#Aps 01-101; Kinase Logistics, Meyn, Germany) and 1.5 μM Profiler Pro peptide 6 (#760350; Perkin Elmer, Tres Cantos, Madrid, Spain) in the presence of different concentrations of Adenosine 5′triphosphate disodium salt, ATP (#A2383; Sigma Aldrich, Madrid, Spain) in a 384-well Microplate (#781076; Greiner, San Sebastián de los Reyes, Madrid, Spain). The reaction rate was calculated from kinetic measurements carried out measured in a Caliper EzReader LabChip 3000 (Caliper, Hopkinton, MA, USA) reader with samples taken each 10 min for a total time of 60 min. The percentage of substrate conversion rate was plotted versus the ATP concentration. The data was analyzed by non-linear fitting with GraphPad Prism by employing the Michaelis–Menten equation. The buffer assay used in the inhibition hAKT1 assay is: Hepes 100 mM, DMSO 4%, Brij 0.003%, Tween 20 0.004%, MgCl2 10 mM, with a pH = 7.5.
The Ki values were calculated by employing the GraphPad Prism equations.

Data set [7] in a line: UV-VIS titration assay with increasing MgCl2. The class given is physicochemical. As to conditions: 100 µM compound, up to 10 mM MgCl2. As for the experimental part:
The potential ability of T126 to chelate Mg^2+ ions was evaluated by spectrophotometric methods using a T70+ UV-Vis Spectrometer (PG Instruments, Leicestershire, UK) and a quartz cuvette with a 1 cm optical path. MgCl2. 5H2O 1M solution was prepared from powder (VWR International, Milan, Italy). The compound T126 was dissolved in DMSO to a final concentration of 10 mM and diluted with a milliQ water/DMSO mixture to a final concentration of 100 µM (4% DMSO). The obtained solution was placed in a cuvette and the UV-Vis spectra was recorded between 200 and 500 nm using water milliQ (with 4% DMSO) as reference. Thereafter, small volumes of MgCl2 aqueous solution were added both in the sample and in the reference cuvettes to obtain a series of solutions containing increasing concentrations of MgCl2 (1.25, 2.5, 5 and 10 mM), carefully pipetted for mixing, and the UV-Vis spectra were repeated. Each experiment was performed in triplicate.

Some results are limits rather than exact numbers.

T1 sequence (P31749 whole entry): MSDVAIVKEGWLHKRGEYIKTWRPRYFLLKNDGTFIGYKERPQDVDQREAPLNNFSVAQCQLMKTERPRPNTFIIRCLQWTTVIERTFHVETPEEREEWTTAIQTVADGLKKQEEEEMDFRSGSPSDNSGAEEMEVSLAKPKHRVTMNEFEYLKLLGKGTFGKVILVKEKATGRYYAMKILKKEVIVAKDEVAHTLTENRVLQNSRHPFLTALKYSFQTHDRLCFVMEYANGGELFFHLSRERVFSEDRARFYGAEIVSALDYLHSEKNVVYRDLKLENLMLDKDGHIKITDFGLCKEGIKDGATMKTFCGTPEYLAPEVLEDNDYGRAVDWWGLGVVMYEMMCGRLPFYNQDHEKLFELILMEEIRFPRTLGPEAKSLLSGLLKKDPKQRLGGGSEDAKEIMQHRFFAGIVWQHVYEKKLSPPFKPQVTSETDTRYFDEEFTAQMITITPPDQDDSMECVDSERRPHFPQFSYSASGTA

`O=c1[nH]c(-c2ccc(O)c(O)c2)nc2sc3c(c12)CCCC3` [T126]: the “concentration up to which no aggregation occurs” value in [1] is given as not below 100 µM. The “phosphorylation of mTOR (S2448)” value in data set [2] is reported as “decreased phosphorylation”. For the same compound, in data set [3] (OCI-AML3, 4 h, 1 and 2.5 µM), the “inhibition of p-AKT” value was “inhibition of p-AKT was already observed”. The “phosphorylation of AKT1 (S473)” value in data set [3] (increasing concentrations (0.5 and 5 µM), 24 and 48 h, OCI-AML3, IMS-M2, OCI-AML2) is “decreased phosphorylation”. The “phosphorylation of 4E-BP1 (S65)” value in data set [4] is recorded as “reduction of its phosphorylation levels”. Moreover, in the data set with OCI-AML3 [5], the cell growth inhibition entry is “significant cell growth inhibition”. Besides, the induction of apoptosis result in the data set on OCI-AML3 [6], with OCI-AML2 and in the data set with IMS-M2 was “significant level of apoptosis” each time. Further, it took 1.99 ± 0.11 µM to reach half-maximal inhibition against AKT1 (IC50). In addition, on AKT1 (10 μM compound, read-out: %inh (percentage of inhibition of AKT1 activity)), the inhibition at 10 µM amounted to 87%. Besides, the Ki on AKT1 (read-out: Ki (AKT1 inhibition constant)) amounted to 0.41 µM. Moreover, the “ability to chelate Mg^2+ ions” value in data set [7] is “inability of T126 to chelate Mg^2+ ions”.
